Test results as given in patent US8741868B2, “Pharmaceutical composition including an HIF-2 alpha inhibitor as an active ingredient for preventing or treating arthritis” (Gwangju Institute of Science and Technology, priority 2010, dated 2014).

B1: IL-4: anti-inflammatory cytokine (R&D Systems, USA) (protein, UniProt P05112 25-153, looked up)
Interleukin-4: HKCDITLQEIIKTLNSLTEQKTLCTELTVTDIFAASKNTTEKETFCRAATVLRQFYSHHEKDTRCLGATAQQFHRHKQLIRFLKRLDRNLWGLAGLNSCPVKEANQSTLENFLERLKTIMREKYSKCSS
B2: IL-10: anti-inflammatory cytokine (R&D Systems, USA) (protein, UniProt P22301 19-178, looked up)
Interleukin-10: SPGQGTQSENSCTHFPGNLPNMLRDLRDAFSRVKTFFQMKDQLDNLLLKESLLEDFKGYLGCQALSEMIQFYLEEVMPQAENQDPDIKAHVNSLGENLKTLRLRLRRCHRFLPCENKSKAVEQVKNAFNKLQEKGIYKAMSEFDIFINYIEAYMTMKIRN
B3: IL-12: anti-inflammatory cytokine (R&D Systems, USA) (protein, UniProt P29459 23-219; P29460 23-328, looked up)
Interleukin-12 subunit alpha: RNLPVATPDPGMFPCLHHSQNLLRAVSNMLQKARQTLEFYPCTSEEIDHEDITKDKTSTVEACLPLELTKNESCLNSRETSFITNGSCLASRKTSFMMALCLSSIYEDLKMYQVEFKTMNAKLLMDPKRQIFLDQNMLAVIDELMQALNFNSETVPQKSSLEEPDFYKTKIKLCILLHAFRIRAVTIDRVMSYLNAS
Interleukin-12 subunit beta: IWELKKDVYVVELDWYPDAPGEMVVLTCDTPEEDGITWTLDQSSEVLGSGKTLTIQVKEFGDAGQYTCHKGGEVLSHSLLLLHKKEDGIWSTDILKDQKEPKNKTFLRCEAKNYSGRFTCWWLTTISTDLTFSVKSSRGSSDPQGVTCGAATLSAERVRGDNKEYEYSVECQEDSACPAAEESLPIEVMVDAVHKLKYENYTSSFFIRDIIKPDPPKNLQLKPLKNSRQVEVSWEYPDTWSTPHSYFSLTFCVQVQGKSKREKKDRVFTDKTSATVICRKNASISVRAQDRYYSSSWSEWASVPCS

Experiments:
[1] = system: cartilage degeneration-inducing factors MMP (1, 3, 9, 12, 13), ADAMTS4, PTGS2, NOS2; assay: Expression of cartilage degeneration-inducing factors in chondrocytes after HIF-2α siRNA (RT-PCR, western blot, qRT-PCR); format: cell-based, mouse; conditions: for expression of the cartilage degeneration-inducing factors MMP (1, 3, 9, 12, 13), ADAMTS4, PTGS2, NOS2: siRNA 25, 50, 100 nM for 7 hours, then IL-1β medium 1.5 days, vs C-siRNA 100 nM
Method: Also, the expression of the cartilage degeneration-inducing factors was investigated after artificially inhibiting expression of HIF-2α using an siRNA specific for HIF-2α. More specifically, mouse knee joint chondrocytes were kept in a culture medium for 72 hours. After infecting with control (C-siRNA, 100 nM) or HIF-2α siRNA (25, 50, 100 nM) for 7 hours, the cells were cultured in a medium containing IL-1B for 1.5 days. The cells were recovered and cartilage degeneration-inducing factors were identified by RT-PCR and western blot. GAPDH and lamin B were used as loading control. Also, mRNA (FIG. 3a) and protein (FIG. 3b) levels of HIF-2α, MMP, ADAMTS, PTGS2 and NOS2 were measured by RT-PCR and western blot and their expression level was quantitated by qRT-PCR (FIGS. 3c and 3d). GAPDH and lamin B were used as loading control. Primers used in PCR are described in Table 1. As a result, it was confirmed that the expression of the cartilage degeneration-inducing factors MMP (1, 3, 9, 12, 13), ADAMTS4, PTGs2, NOS2, etc. is decreased as the expression of HIF-2α is inhibited.
(§1) Also, it was confirmed by qRT-PCR that the expression level of these transcripts is increased by Ad-HIF-2α and decreased by siRNA (FIG. 4a). The experimental procedure was the same as with MMP and ADAMT as described above. NOS2 and PTGS2 regulate cartilage degeneration by inducing production of nitric oxide (NO) and prostaglandin E2 (PGE2), respectively. The level of these metabolites was increased by Ad-HIF-2α and decreased by siRNA, as the expression level of PTGS2 and NOS2 transcripts (FIG. 4b).

MAP kinase = MAP kinase phosphorylation in cytokine-treated chondrocytes; format: cell-based; conditions: cytokine-treated mouse knee articular chondrocytes, HIF-2α-siRNA
Description: According to a preferred embodiment, the siRNA of the present invention has nucleotide sequence included the nucleotide sequence as set forth in SEQ ID NO:1.

[2] = system: nitric oxide (NO) and prostaglandin E2 (PGE2); assay: Production of nitric oxide (NO) and prostaglandin E2 (PGE2) in articular chondrocytes; format: cell-based; conditions: mouse knee joint chondrocytes
Description: as §1

HIF-2α = assay: Expression of HIF-2α in mouse knee joint chondrocytes (RT-PCR, qRT-PCR, western blot); format: cell-based; conditions: for expression of HIF-2α: mouse knee joint chondrocytes treated with the cytokine; for expression of HIF-2α transcripts and proteins: signal pathway inhibitor in chondrocytes
Method: In order to induce pathological condition of cartilage degeneration in knee joint chondrocytes of mouse (Charles River, Japan), the cells were treated with interleukin 1β (IL-1β, Calbiochem, USA), IL-17 (R&D Systems, USA), TNF-α (R&D Systems, USA) or IL-21 (R&D Systems, USA), which are known as proinflammatory cytokines. The expression level of HIF-2α was investigated by RT-PCR, qRT-PCR and western blot. The mouse knee joint chondrocytes were isolated from the knee joint of 8-day-old ICR mouse (Charles River, Japan) and cultured in DMEM (Gibco, USA) containing 10% (v/v) fetal bovine serum (Gibco, USA), 50 μg/mL streptomycin (Sigma-Aldrich, USA) and 50 unit/mL penicillin (Sigma-Aldrich, USA). As a result, it was confirmed that whereas the expression of HIF-2α is increased by the proinflammatory cytokines, it is not affected by the anti-inflammatory cytokines IL-4 (R&D Systems, USA), IL-10 (R&D Systems, USA) and […] (R&D Systems, USA) (FIGS. 2a and 2b). IL-1β activates various signal transduction pathways in chondrocytes. Activation of NF-κβ and degradation of IκB protein were confirmed by western blot, and phosphorylation of extracellular signal-regulated kinase (ERK), c-Jun N-terminal kinase (JNK) and p38 MAP kinase from among mitogen-activated protein (MAP) kinase subtypes was confirmed by western blot (FIG. 2c). […] Accordingly, it was confirmed through RT-PCR and western blot (FIG. 2d) and quantification of HIF-2α transcripts by real-time RT-PCR (qRT-PCR) that NFkB and JNK regulate the expression of HIF-2α (FIG. 2e). It was confirmed through immunohistochemical staining that IκB and phosphorylated JNK (pJNK) activating NF-κβ are activated in larger amounts in human degenerative articular cartilage tissue (OA; osteoarthritis) as compared to normal cartilage (Normal).

| Molecule | expression of HIF-2α (HIF-2α) | further results |
| --- | --- | --- |
| HIF-2α siRNA: siRNA specific for HIF-2α; mouse sense 5′-AGUUGUUGUAGACUUUCACCUGGC-3′, antisense 5′-GGCCAGGUGAAAGUCUACAACAAC-3′ (SEQ ID NO 4, 5) (listed as RNA, chemistry not given here) | – | expression level of PTGS2 and NOS2 transcripts (qRT-PCR) ([1]; mouse knee joint chondrocytes, siRNA): decreased; expression of the cartilage degeneration-inducing factors MMP (1, 3, 9, 12, 13), ADAMTS4, PTGS2, NOS2 [1]: decreased; expression of the cartilage degeneration-inducing factors MMP (1, 3, 9, 12, 13), ADAMTS4, PTGS2, NOS2 ([1]; listed as HIF-2α-siRNA): markedly decreased; MAP kinase phosphorylation (MAP kinase): significantly reduced; level of metabolites nitric oxide (NO) and prostaglandin E2 (PGE2) [2]: decreased |
| IL-18: proinflammatory cytokine named in the legend of FIG. 2 | increased | – |
| COc1cccc(-c2cc(=O)c3ccccc3o2)c1N [PD98059, reference compound] | – | expression of HIF-2α transcripts and proteins (HIF-2α): inhibition effect was slightly weak |
| TNF-α | increased | – |
| interleukin 1β [IL-1β] | increased | – |
| CC(C)(C)c1ccc(S(=O)(=O)/C=C/C#N)cc1 [BAY 11-7085, reference compound] | – | expression of HIF-2α transcripts and proteins (HIF-2α): decreased remarkably |
| C[S+]([O-])c1ccc(-c2nc(-c3ccncc3)c(-c3ccc(F)cc3)[nH]2)cc1 (stereo not shown) [SB203580, reference compound] | – | expression of HIF-2α transcripts and proteins (HIF-2α): no effect |
| IL-21: proinflammatory cytokine (R&D Systems, USA) | increased | – |
| IL-17: proinflammatory cytokine (R&D Systems, USA) | increased | – |
| B1 | not affected | – |
| B2 | not affected | – |
| B3 | not affected | – |
